Data: article PMC11191095, “QSAR Reveals Decreased Lipophilicity of Polar Residues Determines the Selectivity of Antimicrobial Peptide Activity” (ACS Omega, 2024)
Where a SMILES comes first, the peptide text is derived from it.

Assays:
C. albicans NCPF 3281 = experiment: microbe, parasite or virus in culture; assay type: cell-based
Method in brief: (§1)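 Peptides 128→2 μg/mL, 2-fold series; inoculum ~5 × 10^5 CFU/mL from overnight culture (OD600 0.01, mixed 1:1). MHB non-cation-adjusted for bacteria, RPMI 1640 + 2% glucose for fungi. 37 °C, 20 h, OD600. MIC50/MIC90 at 50%/90% inhibition; n ≥ 3.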

C. glabrata NCPF 8018 = experiment: microbe, parasite or virus in culture; assay type: cell-based
Method in brief: as §1

C. krusei NCPF 3876 = experiment: microbe, parasite or virus in culture; assay type: cell-based
Method in brief: as §1

[1] = test system: C. parapsilosis NCPF 3209; experiment: microbe, parasite or virus in culture; assay type: cell-based
Method in brief: as §1

C. tropicalis NCPF 8760 = experiment: microbe, parasite or virus in culture; assay type: cell-based
Method in brief: as §1

[2] = RP-HPLC ElutionTime as indicator of hydrophobicity; assay type: physicochemical; details: indicator of overall hydrophobicity; semipreparative RP-HPLC, Waters SymmetryPrep C8, water/ACN gradient with 0.1% TFA, 8 mL/min, 25 °C, 254 nm
Procedure: Crude peptides, made up to 10 mg/mL in 0.1% TFA (v/v) in ddH2O, were subjected to preparative RP-HPLC purification on an Agilent 1100 system, with elution in gradient. A gradient program at a flow rate of 8 mL/min and column temperature of 25 °C was used to achieve elution with solvent A (0.1% trifluoroacetic acid (TFA) in water (v/v)) and solvent B (0.1% TFA in 100% acetonitrile (ACN) (v/v)). The elution program was as follows: (1) At 0–73 min, 100% solvent A to 0% solvent B; (2) at 73–77 min, 40% solvent A to 60% solvent B; (3) at 77–93 min, 10% solvent A to 90% solvent B; (4) at 93–105 min, 100% solvent A to 0% solvent B. Data collected were the retention time of the major fraction for each peptide in minutes as RP-HPLC ElutionTime (ElutionTime). Absorbance was detected at 254 nm, and fractions were collected manually. The fractions collected were spun in a speed-vac to remove ACN and the contents lyophilized. After freeze-drying for 24 h the peptides were dissolved in 10% (v/v) acetic acid before being lyophilized for a second time and then stored at −20 °C.
Molecular descriptors used in the QSAR analysis included: charge, sequence length, overall lipophilicity (L), lipophilicity contributed by the polar or nonpolar residues (LP and LN), summation of the side chain surface areas of the total peptide, polar or nonpolar residues (SCSA, SCSAP, and SCSAN), the molecular weight of the entire peptide, polar or nonpolar residues (Mw, MwP, and MwN), count of small lipophilic residues (CSL) or aromatic residues (CAR), the total number of hydrogen bond donor and acceptor centers (HBtot, HBdon, and HBacc), the total number of rotatable bonds (#RotBonds) and various amphipathicity descriptors (LP/L, LP/LN, L/LN, Q/L, Q/LN, SCSAP/SCSAN, MwP/MwN, Q/CSL, and Q/CAR) (Suppl. Table S1). Experimentally determined characteristics included ElutionTime as an indicator of overall peptide hydrophobicity and the CD structure of each peptide determined in POPG/POPE lipids representing Gram-negative membranes, POPG lipids for Gram-positive membranes, and SDS micelles for fungal membranes. AMPs with an α-helical structure were labeled 4, β-sheets were labeled 3, β-turns and mixed conformations were labeled 2, and disordered structures were labeled 1.

[3] = test system: eight Gram-negative, four Gram-positive bacteria, and six fungi; experiment: Antimicrobial screening against panel of 18 pathogens; assay type: cell-based; details: 128 to 2 μg/mL, 37 °C, 20 h
Procedure: Antimicrobial activity was evaluated against a panel of 18 pathogens consisting of eight Gram-negative strains (E. coli NCTC 12923, E. coli LEC001, Pseudomonas aeruginosa PAO1, P. aeruginosa NCTC 13437, Acinetobacter baumannii ATCC 17978, A. baumannii AYE, Klebsiella pneumoniae M6, K. pneumoniae NCTC 13368), four Gram-positive strains (Staphylococcus aureus ATCC 9144, S. aureus NCTC 13616, S. aureus USA300, S. aureus 1199B) and six fungi (Candida auris TDG 1912, C. albicans NCPF 8018, C. krusei NCPF 3876, C. tropicalis NCPF 8760, and C. parapsilosis NCPF 3209). Pathogens were grown in noncation adjusted Mueller Hinton broth (MHB, for bacteria) or Roswell Park Memorial Institute (RPMI 1640) + 2% glucose (for fungi) at 37 °C with 180 rpm shaking and maintained on solid media (tryptic soy agar for bacteria and Sabouraud dextrose agar for fungi). For an antibiogram, see Suppl.
The 46 peptides were serially diluted (128 to 2 μg/mL) in media down polypropylene 96-well plates. […] Plates were incubated at 37 °C for 20 h, and the optical density was determined spectrophotometrically at 600 nm. Minimum inhibition concentrations (MICs) were determined from a minimum of three biological repeats and are reported in μg/mL as well as μM. […]

S. aureus (MRSA) 1199B = experiment: microbe, parasite or virus in culture; assay type: cell-based, Staphylococcus aureus; details: S. aureus (MRSA) 1199B (R); shown in µM
Method in brief: as §1

C. auris TDG 1912 = experiment: microbe, parasite or virus in culture; assay type: cell-based, Candida auris
Method in brief: as §1

| Compound | Modal MIC50 (C. albicans NCPF 3281; NCPF 3281, 20 h) [µM] | Modal MIC90 (C. albicans NCPF 3281; NCPF 3281, 20 h) [µM] | Modal MIC50 (C. glabrata NCPF 8018; NCPF 8018, 20 h) [µM] | Modal MIC90 (C. glabrata NCPF 8018; NCPF 8018, 20 h) [µM] | Modal MIC50 (C. krusei NCPF 3876; NCPF 3876, 20 h) [µM] | Modal MIC90 (C. krusei NCPF 3876; NCPF 3876, 20 h) [µM] | Modal MIC50 ([1]; NCPF 3209, 20 h) [µM] | Modal MIC90 ([1]; NCPF 3209, 20 h) [µM] | Modal MIC50 (C. tropicalis NCPF 8760; NCPF 8760, 20 h) [µM] | Modal MIC90 (C. tropicalis NCPF 8760; NCPF 8760, 20 h) [µM] | ElutionTime (RP-HPLC retention time of major fraction) [2] [min] | antimicrobial activity in the screens [3] | other results |
| --- | --- | --- | --- | --- | --- | --- | --- | --- | --- | --- | --- | --- | --- |
| CC(C)[C@H](NC(=O)CNC(=O)[C@H](CCCNC(=N)N)NC(=O)[C@H](CCCNC(=N)N)NC(=O)[C@H](CS)NC(=O)[C@@H](NC(=O)[C@H](CS)NC(=O)[C@@H](N)CCCNC(=N)N)C(C)C)C(=O)N[C@@H](CS)C(=O)O [ThetaDefB] (H-RCVCRRGVC-OH; N-terminus and C-terminus assumed) | > 116.4 | > 116.4 | > 116.4 | > 116.4 | > 116.4 | > 116.4 | > 116.4 | > 116.4 | > 116.4 | > 116.4 | 20 | no activity |  |
| CC(C)[C@H](NC(=O)CNC(=O)[C@H](CCCNC(=N)N)NC(=O)[C@@H](N)CCCNC(=N)N)C(=O)N[C@@H](CS)C(=O)N[C@@H](CCCNC(=N)N)C(=O)N[C@@H](CS)C(=O)N[C@H](C(=O)N[C@@H](CS)C(=O)N[C@@H](CCCNC(=N)N)C(=O)N[C@@H](CCCNC(=N)N)C(N)=O)C(C)C [BTD11a] (H-RRGVCRCVCRR-NH2; N-terminus assumed) | 23.5 | 47 | 11.8 | 23.5 | 23.5 | 23.5 | 2.9 | 11.8 | 0.7 | 1.5 | 16 |  | Modal MIC (S. aureus (MRSA) 1199B): > 94 µM; Modal MIC50 (C. auris TDG 1912; C. auris TDG 1912, 50% growth inhibition, RPMI 1640 + 2% glucose, 37 °C, 20 h, OD600): 64 µg/mL; Modal MIC50 (C. auris TDG 1912; TDG 1912, 20 h): 47 µM; Modal MIC90 (C. auris TDG 1912; TDG 1912, 20 h): > 94 µM; Modal MIC50 (C. albicans NCPF 3281; C. albicans NCPF 3281, 50% growth inhibition, RPMI 1640 + 2% glucose, 37 °C, 20 h): 32 µg/mL; Modal MIC90 (C. albicans NCPF 3281; C. albicans NCPF 3281, 90% growth inhibition, RPMI 1640 + 2% glucose, 37 °C, 20 h): 64 µg/mL; Modal MIC50 (C. glabrata NCPF 8018; C. glabrata NCPF 8018, 50% growth inhibition, RPMI 1640 + 2% glucose, 37 °C, 20 h): 16 µg/mL; Modal MIC90 (C. glabrata NCPF 8018; C. glabrata NCPF 8018, 90% growth inhibition, RPMI 1640 + 2% glucose, 37 °C, 20 h): 32 µg/mL; Modal MIC50 (C. krusei NCPF 3876; C. krusei NCPF 3876, 50% growth inhibition, RPMI 1640 + 2% glucose, 37 °C, 20 h): 32 µg/mL; Modal MIC90 (C. krusei NCPF 3876; C. krusei NCPF 3876, 90% growth inhibition, RPMI 1640 + 2% glucose, 37 °C, 20 h): 32 µg/mL; Modal MIC50 ([1]; C. parapsilosis NCPF 3209, 50% growth inhibition, RPMI 1640 + 2% glucose, 37 °C, 20 h): 4 µg/mL; Modal MIC90 ([1]; C. parapsilosis NCPF 3209, 90% growth inhibition, RPMI 1640 + 2% glucose, 37 °C, 20 h): 16 µg/mL; Modal MIC50 (C. tropicalis NCPF 8760; C. tropicalis NCPF 8760, 50% growth inhibition, RPMI 1640 + 2% glucose, 37 °C, 20 h): 1 µg/mL; Modal MIC90 (C. tropicalis NCPF 8760; C. tropicalis NCPF 8760, 90% growth inhibition, RPMI 1640 + 2% glucose, 37 °C, 20 h): 2 µg/mL |
| CC(C)[C@H](NC(=O)[C@H](CS)NC(=O)[C@@H](N)CCCNC(=N)N)C(=O)N[C@@H](CS)C(=O)N[C@H](C(=O)N[C@@H](CCCNC(=N)N)C(=O)NCC(=O)N[C@@H](Cc1ccccc1)C(=O)N[C@@H](CS)C(=O)O)[C@@H](C)O [ThetaDefA] (H-RCVCTRGFC-OH; N-terminus and C-terminus assumed) | > 122.6 | > 122.6 | > 122.6 | > 122.6 | > 122.6 | > 122.6 | > 122.6 | > 122.6 | > 122.6 | > 122.6 | 22 | no activity |  |
